Experimental findings from patent US20120225132A1, “Methods for Increasing the Kinetic Activity of Alcohol, Water and Other Liquids, so as to Render the Liquids More Capable of Enhancing the Alternative Cellular Energy Pathway in the Prevention and Therapy of Diseases” (priority 2011, published 2012) are described below.

For the assay, the system named is ACE pathway. The assay can be described thus: Clinical evaluation of ethanol solutions (with neutral red dye and UV illumination) by the parent of an autistic child. The note with it: standardized protocol. The assay is classed as in vivo.

Consider `CCO` [unprocessed ethanol, ethanol], for which the “clinical response of the child with autism as judged by the parent” value is given as “still effective”.
